For experiment [1], the system named is GPR17+ oligodendrocyte precursors in primary cortical cultures. The experiment is described as follows: Oligodendrocyte precursor maturation in primary mixed neuronal/glial cortical cultures (immunostaining, cell counts). The format is cell-based, rat. The settings on record: 72 h.
From the text: Figure 4 Presence and activation of GPR17 in oligodendrocyte precursor cells of primary cortical cultures maintained in vitro. […] Micrographs (A–H) show their phenotype characterization. […] Colocalization of GPR17 with these markers is shown in yellow-orange cells. […] In blue, Hoechst 33258 stained nuclei. Single cell RT-PCR was used to confirm expression of GPR17 in oligodendroglial-like cells (I). For this analysis, cells were picked up from living cultures using cell morphology as a guide at the light microscope. Left micrograph: an example of a brightfield showing cells (arrows) with oligodendrocyte morphology. These cells can be distinguished from neurons based on their size (approximately 1/3 the size of neurons), phase-dark cell bodies and presence of fine ramifications. The oligodendrocyte nature of cells with this morphology was confirmed by co-immunostaining for O4 and GPR17 at a subsequent time after culture fixing (arrows in right micrograph). By following this method, one living cell or a small number of cells (up to 10) were sucked from living cultures (see MATERIALS AND METHODS) and processed for RT-PCR analysis. […] Rat cortex was utilized as a positive control (see last lane). Scale bars: 15 µm. […] (K) Quantification of the percentage of GPR17^+ cells that also co-express the indicated oligodendrocyte markers. Total number (n) of GPR17^+ cells counted from two different coverslips for each preparation: for NG2, n = 3502; for O4, n = 2685; for CNPase, n = 1738; for MBP, n = 3615. Data were obtained from five different primary culture preparations.
Primary mixed neuronal/glial cultures from cerebral cortex were obtained from E18 Sprague-Dawley rats according to standard procedures [34]. Pregnant animals were euthanized by cervical dislocation under CO2 anesthesia, and the fetuses removed and put into ice-cold Hanks balanced salt solution. […]
The next experiment has as its target T1, GPR17 (Mus musculus, UniProt Q6NS65).
T1 construct: from tissue; host or cells: brain of living male CD1 mice after permanent MCAo
Put plainly: Permanent MCAo focal cerebral ischemia, brain infarct size by MRI. The format is in vivo.

The target of another experiment is T2, mGPR17 (Mus musculus, UniProt Q6NS65).
T2 construct: contains a 1020 base pairs open reading frame (ORF) that encodes for a putative 339 amino acid protein; expressed in transfected cells; host or cells: 1321N1 human astrocytoma cells (transient, calcium phosphate); membranes
T2 sequence (Q6NS65 whole entry): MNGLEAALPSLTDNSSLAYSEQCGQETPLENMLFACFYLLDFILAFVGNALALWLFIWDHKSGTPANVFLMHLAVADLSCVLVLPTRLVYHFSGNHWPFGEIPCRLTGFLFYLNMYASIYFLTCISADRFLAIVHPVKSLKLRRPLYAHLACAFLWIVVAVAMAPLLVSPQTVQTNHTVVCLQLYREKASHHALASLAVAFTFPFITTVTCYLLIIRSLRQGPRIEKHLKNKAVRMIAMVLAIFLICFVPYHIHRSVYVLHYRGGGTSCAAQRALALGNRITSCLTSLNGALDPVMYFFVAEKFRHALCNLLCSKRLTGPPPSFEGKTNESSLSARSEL
The experiment is described as follows: [35S]GTPγS binding in membranes of 1321N1 cells transfected with pcDNA3.1-Gpr17m. Format: biochemical. The settings on record: for EC50: membranes of 1321N1 cells expressing mouse GPR17, mean±SEM of three experiments, read-out: EC50, stimulation of [35S]GTPγS binding. The protocol: The pharmacological profile of mGPR17 was then assessed. Since stimulation of GPCRs results in increased binding of GTP to G proteins (which can, in turn, be quantified by measuring [^35S]GTPγS binding to purified membranes; see [13]), GPR17 activation in the heterologous system was determined by testing the increase of [^35S]GTPγS binding by exogenously-added agonists in membranes from transfected cells, [14], [15]. […] The ability of some known purinergic and cysLT antagonists to counteract agonist-induced GTPγS binding stimulation in cells expressing mGPR17 was also assessed.
Figure 1 Effect of purinergic and leukotriene ligands on mGPR17 with [^35S]GTPγS binding. Membrane aliquots (10 µg), obtained from 1321N1 cells transfected with pcDNA3.1-Gpr17m (A,B), were incubated with the indicated concentrations of purinergic (A) or leukotriene (B) agonists. […] (D) Effect of P2Y or CysLT receptor antagonist on agonist-stimulated [^35S]GTPγS binding. […] All data are expressed as percentage of basal [^35S]GTPγS binding (set to 100%) and represent the mean±SEM of three different experiments each performed in duplicate.
Human astrocytoma cells 1321N1 cells were cultured as described. For [^35S]GTPγS, 10^6 1321N1 cells were seeded on 75 cm^2 flasks and transfected by the calcium phosphate precipitation method.
Control and transfected 1321N1 cells were homogenized in 5 mM TRIS-HCl, 2 mM EDTA, pH 7.4 and centrifuged at 48000 g for 15 min at 4°C. The resulting plasma membranes were suspended in binding buffer and used in [^35S]GTPγS binding assay as previously described.
For [^35S]GTPγS binding data analysis and graphic presentation, a non-linear multipurpose curve-fitting program Graph-Pad Prism was used and the EC50 values were derived. Data are reported as mean±SEM of three different experiments (performed in duplicate).
Background: GTPγS resists hydrolysis and so accumulates on activated G proteins.

[2] abbreviates: UDP-glucose 100 µM, LTD4 100 nM.

T1 sequence (Q6NS65 whole entry): as above

For `CSCCNc1nc(SCCC(F)(F)F)nc2c1ncn2[C@@H]1O[C@H](COP(=O)(O)OP(=O)(O)C(Cl)(Cl)P(=O)(O)O)[C@@H](O)[C@H]1O` [Cangrelor], the “effect on UDP-glucose-induced increase of GPR17+ and MBP+ cells” value in experiment [1] (10 µM antagonist with 100 µM UDP-glucose) is “partially counteracted”. At GPR17 (cangrelor 1.125 µg/animal i.c.v. 20 min after MCAo, oligonucleotides 10 µg/animal i.c.v. 20 min and 24 h after MCAo), the “progression of ischemic damage (brain infarct volume) at 24 and 48 h vs 2 h” value is given as “totally abolished”. Moreover, the “ischemic infarct volume at 2 h after MCAo” value at GPR17 (i.c.v. treatment 20 min after MCAo, 6 animals/group, no significant differences between groups) worked out at 16.4±4.23 mm^3. In addition, the IC50 (as a rule, the concentration that gives 50% inhibition) at mGPR17 (membranes of 1321N1 cells expressing mGPR17, 10 min pre-incubation, 500 nM UDP, read-out: IC50, inhibition of GTPγS binding stimulated by UDP) was determined as 1200 ± 300 pM.
As to `CCCCC/C=C\C\C=C/C=C/C=C/[C@@H](SC[C@H](NC(=O)CC[C@H](N)C(=O)O)C(=O)NCC(=O)O)[C@@H](O)CCCC(=O)O` [LTC4], the EC50 (in general, the concentration at which the effect is half-maximal) at mGPR17 was 740 ± 200 pM.
Take `CCCCC/C=C\C\C=C/C=C/C=C/[C@@H](SC[C@H](N)C(=O)NCC(=O)O)[C@@H](O)CCCC(=O)O` [LTD4]: in experiment [1] (setting [2]), the “number of GPR17+ precursor cells” value is listed as “significantly increased” and the “number of mature MBP+ oligodendroglial cells” value is listed as “significantly increased”. Also, the concentration for a half-maximal effect (EC50) on mGPR17 came out at 630 ± 100 pM.
In the case of `CCCCC/C=C\C\C=C/C=C/C=C/[C@@H](SC[C@H](N)C(=O)O)[C@@H](O)CCCC(=O)O` [LTE4], the EC50 on mGPR17 was determined as 310 ± 90 pM.
On the same count and under the same terms, next, `O=c1ccn([C@@H]2O[C@H](COP(=O)(O)OP(=O)(O)O)[C@@H](O)[C@H]2O)c(=O)[nH]1` [UDP]: 55000 ± 6200 pM.

Source of the values: paper PMC2570486, “The Recently Identified P2Y-Like Receptor GPR17 Is a Sensor of Brain Damage and a New Target for Brain Repair” (PLoS ONE, 2008).
